# From PubChem BioAssay AID1919004 (Molecular Pharmacology Branch, DTP, NCI, 2023)
# System: 883617-216-R-J1-PDC complex spheroids, growth, % test/control
# Assay: Anticancer human tumor 883617-216-R-J1-PDC patient-derived bladder carcinoma cell line growth inhibition [AhR]
# Conditions: for IC50: curve of first compound; for viability, T/C: stronger effect = lower value
# In short: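 Agents were dosed in half-log steps down from roughly clinical Cmax, or from 10 microM where Cmax was unknown, alone and with AhR antagonists. Read-out: percent test/control growth of tumor spheroids containing HUVEC and MSC stromal cells.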
# [1] = second compound 0.1 µM, first compound 0.00949 µM
# [2] = second compound 0.1 µM, first compound 0.03 µM
# [3] = second compound 0.1 µM, first compound 0.0949 µM
# [4] = second compound 0.1 µM, first compound 0.3 µM
# [5] = second compound 0.316 µM, first compound 0.00949 µM
# [6] = second compound 0.316 µM, first compound 0.03 µM
# [7] = second compound 0.316 µM, first compound 0.0949 µM
# [8] = second compound 0.316 µM, first compound 0.3 µM
# [9] = second compound 1 µM, first compound 0.00949 µM
# [10] = second compound 1 µM, first compound 0.03 µM
# [11] = second compound 1 µM, first compound 0.0949 µM
# [12] = second compound 1 µM, first compound 0.3 µM
# [13] = second compound 3.16 µM, first compound 0.00949 µM
# [14] = second compound 3.16 µM, first compound 0.03 µM
# [15] = second compound 3.16 µM, first compound 0.0949 µM
# [16] = second compound 3.16 µM, first compound 0.3 µM
# [17] = second compound 10 µM, first compound 0.00949 µM
# [18] = second compound 10 µM, first compound 0.03 µM
# [19] = second compound 10 µM, first compound 0.0949 µM
# [20] = second compound 10 µM, first compound 0.3 µM
# 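Further: exposure lasted 7 days after dosing on day 3 of spheroid growth.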
compound,measurement,setting,value
CC1COCCN1c1cc(C2(S(C)(=N)=O)CC2)nc(-c2ccnc3[nH]ccc23)n1 (stereo not given) + Cc1cncc(-c2nc(NCCc3c[nH]c4ccccc34)c3ncn(C(C)C)c3n2)c1,IC50,second compound 0.1 µM,> 10000 nM
same,IC50,second compound 0.316 µM,> 10000 nM
same,IC50,second compound 1 µM,> 10000 nM
same,IC50,second compound 3.16 µM,> 10000 nM
same,IC50,second compound 10 µM,1190 nM
same,"viability, T/C","second compound 0.1 µM, first compound 0.0316 µM",88.1%
same,"viability, T/C","second compound 0.1 µM, first compound 0.1 µM",90.5%
same,"viability, T/C","second compound 0.1 µM, first compound 0.316 µM",84.3%
same,"viability, T/C","second compound 0.1 µM, first compound 1 µM",84.8%
same,"viability, T/C","second compound 0.1 µM, first compound 3.16 µM",78.3%
same,"viability, T/C","second compound 0.1 µM, first compound 10 µM",58.2%
same,"viability, T/C","second compound 0.316 µM, first compound 0.0316 µM",92.4%
same,"viability, T/C","second compound 0.316 µM, first compound 0.1 µM",95.6%
same,"viability, T/C","second compound 0.316 µM, first compound 0.316 µM",92.3%
same,"viability, T/C","second compound 0.316 µM, first compound 1 µM",82.1%
same,"viability, T/C","second compound 0.316 µM, first compound 3.16 µM",69.3%
same,"viability, T/C","second compound 0.316 µM, first compound 10 µM",54.3%
same,"viability, T/C","second compound 1 µM, first compound 0.0316 µM",95.8%
same,"viability, T/C","second compound 1 µM, first compound 0.1 µM",100%
same,"viability, T/C","second compound 1 µM, first compound 0.316 µM",100%
same,"viability, T/C","second compound 1 µM, first compound 1 µM",94.9%
same,"viability, T/C","second compound 1 µM, first compound 3.16 µM",81.7%
same,"viability, T/C","second compound 1 µM, first compound 10 µM",62.9%
same,"viability, T/C","second compound 3.16 µM, first compound 0.0316 µM",103%
same,"viability, T/C","second compound 3.16 µM, first compound 0.1 µM",113%
same,"viability, T/C","second compound 3.16 µM, first compound 0.316 µM",100%
same,"viability, T/C","second compound 3.16 µM, first compound 1 µM",94.2%
same,"viability, T/C","second compound 3.16 µM, first compound 3.16 µM",85%
same,"viability, T/C","second compound 3.16 µM, first compound 10 µM",54.8%
same,"viability, T/C","second compound 10 µM, first compound 0.0316 µM",57%
same,"viability, T/C","second compound 10 µM, first compound 0.1 µM",50.1%
same,"viability, T/C","second compound 10 µM, first compound 0.316 µM",59.6%
same,"viability, T/C","second compound 10 µM, first compound 1 µM",50.6%
same,"viability, T/C","second compound 10 µM, first compound 3.16 µM",42.7%
same,"viability, T/C","second compound 10 µM, first compound 10 µM",29.8%
Nc1ncn(C2CC(O)C(CO)S2)c(=O)n1 (stereo not given) + Cc1cncc(-c2nc(NCCc3c[nH]c4ccccc34)c3ncn(C(C)C)c3n2)c1,IC50,second compound 0.1 µM,> 300 nM
same,IC50,second compound 0.316 µM,> 300 nM
same,IC50,second compound 1 µM,> 300 nM
same,IC50,second compound 3.16 µM,> 300 nM
same,IC50,second compound 10 µM,> 300 nM
same,"viability, T/C","second compound 0.1 µM, first compound 0.000949 µM",93.3%
same,"viability, T/C","second compound 0.1 µM, first compound 0.003 µM",88.9%
same,"viability, T/C",[1],94.6%
same,"viability, T/C",[2],89.9%
same,"viability, T/C",[3],87.3%
same,"viability, T/C",[4],81.9%
same,"viability, T/C","second compound 0.316 µM, first compound 0.000949 µM",95%
same,"viability, T/C","second compound 0.316 µM, first compound 0.003 µM",104%
same,"viability, T/C",[5],103%
same,"viability, T/C",[6],90.7%
same,"viability, T/C",[7],91.7%
same,"viability, T/C",[8],81.6%
same,"viability, T/C","second compound 1 µM, first compound 0.000949 µM",105%
same,"viability, T/C","second compound 1 µM, first compound 0.003 µM",119%
same,"viability, T/C",[9],106%
same,"viability, T/C",[10],107%
same,"viability, T/C",[11],92.4%
same,"viability, T/C",[12],94.8%
same,"viability, T/C","second compound 3.16 µM, first compound 0.000949 µM",82.8%
same,"viability, T/C","second compound 3.16 µM, first compound 0.003 µM",82.6%
same,"viability, T/C",[13],82.4%
same,"viability, T/C",[14],88.2%
same,"viability, T/C",[15],76.7%
same,"viability, T/C",[16],83.1%
same,"viability, T/C","second compound 10 µM, first compound 0.000949 µM",54.5%
same,"viability, T/C","second compound 10 µM, first compound 0.003 µM",62.4%
same,"viability, T/C",[17],59%
same,"viability, T/C",[18],57.3%
same,"viability, T/C",[19],46.4%
same,"viability, T/C",[20],61.5%
O=C(C=Cn1cnc(-c2cc(C(F)(F)F)cc(C(F)(F)F)c2)n1)NNc1cnccn1 + Cc1cncc(-c2nc(NCCc3c[nH]c4ccccc34)c3ncn(C(C)C)c3n2)c1,IC50,second compound 0.1 µM,900 nM
same,IC50,second compound 0.316 µM,1380 nM
same,IC50,second compound 1 µM,1760 nM
same,IC50,second compound 3.16 µM,1530 nM
same,IC50,second compound 10 µM,< 9.49 nM
same,"viability, T/C",[1],81.5%
same,"viability, T/C",[2],74.9%
same,"viability, T/C",[3],63.7%
same,"viability, T/C",[4],58.1%
same,"viability, T/C","second compound 0.1 µM, first compound 0.949 µM",50.1%
same,"viability, T/C","second compound 0.1 µM, first compound 3 µM",42.5%
same,"viability, T/C",[5],88.3%
same,"viability, T/C",[6],78.4%
same,"viability, T/C",[7],72.3%
same,"viability, T/C",[8],58.1%
same,"viability, T/C","second compound 0.316 µM, first compound 0.949 µM",57.1%
same,"viability, T/C","second compound 0.316 µM, first compound 3 µM",42.4%
same,"viability, T/C",[9],83%
same,"viability, T/C",[10],79.1%
same,"viability, T/C",[11],69.5%
same,"viability, T/C",[12],61.4%
same,"viability, T/C","second compound 1 µM, first compound 0.949 µM",62%
same,"viability, T/C","second compound 1 µM, first compound 3 µM",42.7%
same,"viability, T/C",[13],93.6%
same,"viability, T/C",[14],88.2%
same,"viability, T/C",[15],80%
same,"viability, T/C",[16],67.5%
same,"viability, T/C","second compound 3.16 µM, first compound 0.949 µM",52.9%
same,"viability, T/C","second compound 3.16 µM, first compound 3 µM",45.2%
same,"viability, T/C",[17],49.5%
same,"viability, T/C",[18],40.5%
same,"viability, T/C",[19],32.4%
same,"viability, T/C",[20],29.7%
same,"viability, T/C","second compound 10 µM, first compound 0.949 µM",42.5%
same,"viability, T/C","second compound 10 µM, first compound 3 µM",44.2%
